Test results: EP4741389A1, “KAT6 INHIBITOR” (Shanghai Qilu Pharmaceutical Research and Development …, priority 2023, dated 2025)

Tests used:
[1] = target: T1, KAT6A (Homo sapiens, UniProt Q92794); assay: KATs acetyltransferase enzyme activity assay (TR-FRET), KAT6A; format: biochemical; conditions: Biotin-H3 (1-21) and AcCOA, 90 minutes at room temperature
T1 construct: purchased Active Motif 81223
Experimental: (§1) I. KATs acetyltransferase enzyme activity assay
• 1. The inhibitory effect of compounds on the acetyltransferase activity of KATs was evaluated using the Time-Resolved Fluorescence Resonance Energy Transfer (TR-FRET) assay. The assay was conducted in 384-well plates using Tris-HCl buffer. • 2. Compounds were diluted in DMSO and transferred to 384-well plates. […] Subsequently, 2.5 µL of a mixture containing KAT6A/KAT6B: Biotin-H3 (1-21, Genscript, C6829GL060) or KAT5/7/8: Bio-H4 (1-25, Genscript, C736BGL100) AcCOA (Sigma, A2056) was added, and the reaction proceeded at room temperature for 90 minutes. • 4. After the reaction, a detection mixture containing Europium-anti-acetyl-Histone H4 Lysine (H4Kac pan) Antibody (Perkin Elmer, TRF0412) and LANCE Ultra ULight™-Streptavidin in LANCE™ Detection buffer (10x) (Perkin Elmer, CR97-100) was added, followed by incubation at room temperature for 60 minutes. • 5. […] IC50 values were calculated by nonlinear regression using a four-parameter logistic equation in GraphPad Prism 8 software.

[2] = target: T2, KAT6B (Homo sapiens, UniProt Q8WYB5); assay: KATs acetyltransferase enzyme activity assay (TR-FRET), KAT6B; format: biochemical; conditions: Biotin-H3 (1-21) and AcCOA, 90 minutes at room temperature
T2 construct: purchased Active Motif 81224
Experimental: as §1
• 1. The inhibitory effect of compounds on the acetyltransferase activity of KATs was evaluated using the Time-Resolved Fluorescence Resonance Energy Transfer (TR-FRET) assay. The assay was conducted in 384-well plates using Tris-HCl buffer. • 2. Compounds were diluted in DMSO and transferred to 384-well plates. Enzyme solutions (KAT6: active motif (kit), 81223; KAT6B: active motif, 81224; KAT5: SignalChem, K314-380G; KAT7: ICE, S2210F-H21HF; KAT8: Active motif, 81225) were added and the mixture was incubated at room temperature for 15 minutes. • 3. Subsequently, 2.5 µL of a mixture containing KAT6A/KAT6B: Biotin-H3 (1-21, Genscript, C6829GL060) or KAT5/7/8: Bio-H4 (1-25, Genscript, C736BGL100) AcCOA (Sigma, A2056) was added, and the reaction proceeded at room temperature for 90 minutes. • 4. After the reaction, a detection mixture containing Europium-anti-acetyl-Histone H4 Lysine (H4Kac pan) Antibody (Perkin Elmer, TRF0412) and LANCE Ultra ULight™-Streptavidin in LANCE™ Detection buffer (10x) (Perkin Elmer, CR97-100) was added, followed by incubation at room temperature for 60 minutes. • 5. HTRF signals were measured using a BMG PHERAstar FSX (Ratio: 665nm/620nm). IC50 values were calculated by nonlinear regression using a four-parameter logistic equation in GraphPad Prism 8 software.

[3] = system: ZR-75-1 cells; assay: ZR-75-1 cell proliferation assay (CellTiter-Glo); format: cell-based; conditions: Homo sapiens, ZR-75-1, 240 h, total culture period of 10 days, read-out: ZR-75-1 Proliferation Inhibition IC50
Experimental: II. ZR-75-1 cell proliferation assay
• 1. ZR-75-1 cells were seeded in 96-well plates and cultured overnight in an incubator at 37°C & 5% CO2. • 2. Compounds were diluted using culture medium and added to the 96-well plates. The plates were placed back into the incubator for continued culture. Every 5 days, the cells were trypsinized, counted, and re-seeded. After the cells had fully adhered, compounds were added again for incubation, for a total culture period of 10 days. • 3. After the culture period, 60 µL of CellTiter-Glo reagent (Promega, G7573) was added to each well. The plates were protected from light and shaken for 2 minutes to lyse the cells, followed by further incubation at room temperature, protected from light, for 30 minutes. • 4. Luminescence signals were read using a BMG PHERAstar FSX. IC50 values were calculated by nonlinear regression using a four-parameter logistic equation in GraphPad Prism 8 software.

[4] = system: ZR-75-1 H3K23 Acetylation; assay: Histone H3 acetylation assay (H3K23 acetylation in ZR-75-1 cells); format: cell-based; conditions: Homo sapiens, 72 hours incubation, Odyssey CLx fluorescence, read-out: ZR-75-1 H3K23 Acetylation Inhibition IC50
Experimental: III. Histone H3 acetylation assay
• 1. ZR-75-1 cells were seeded at 5000 cells/40 µL per well in 384-well plates and cultured overnight in an incubator at 37°C & 5% CO2. • 2. 40 nL of serially diluted compounds were added to the 384-well plates, followed by further incubation for 72 hours. • 3. The supernatant was discarded, and 8 w/v% paraformaldehyde (final concentration was 4 w/v%) was added directly to the wells to fix the cells at room temperature. • 4. After washing twice with PBS, a permeabilization agent (40 µL of methanol) was added and incubated for 10 minutes to permeabilize the cell membranes. • 5. After washing twice with PBS, a blocking buffer was added and incubated at room temperature for 1 hour for blocking. • 6. The blocking buffer was discarded, and 20 µL of primary antibodies (recombinant Anti-Histone H3 (acetyl K23) antibody and Anti-Histone H4 antibody) diluted in blocking buffer (1:1000 by volume dilution) were added, followed by incubation at 4°C overnight. • 7. After washing three times with PBST (0.05 vol% Tween-20 in PBS), 20 µL of fluorescent secondary antibodies (IRDye 680RD Goat anti-MOUSE, Licor, 926-68070; IRDye 800CW Goat anti-Rabbit, Licor, 926-32211) diluted in blocking buffer (1:2000 by volume dilution) were added, followed by incubation at room temperature, protected from light, for 1 hour. Then, the plates were washed three times with PBST. • 8. Scanning was performed using an Odyssey CLx, and the fluorescence signal value for each well was quantified. IC50 values were calculated by nonlinear regression using a four-parameter logistic equation in GraphPad Prism 8 software.

T1 sequence (Q92794 488-778 limits assumed): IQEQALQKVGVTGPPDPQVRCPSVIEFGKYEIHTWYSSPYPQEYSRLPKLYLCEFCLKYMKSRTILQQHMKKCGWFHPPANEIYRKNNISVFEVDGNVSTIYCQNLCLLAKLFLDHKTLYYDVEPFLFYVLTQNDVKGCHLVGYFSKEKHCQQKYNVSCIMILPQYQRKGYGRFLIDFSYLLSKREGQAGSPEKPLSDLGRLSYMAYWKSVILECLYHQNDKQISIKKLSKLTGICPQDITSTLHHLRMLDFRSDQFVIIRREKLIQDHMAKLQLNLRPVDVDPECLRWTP
T2 sequence (Q8WYB5 whole entry): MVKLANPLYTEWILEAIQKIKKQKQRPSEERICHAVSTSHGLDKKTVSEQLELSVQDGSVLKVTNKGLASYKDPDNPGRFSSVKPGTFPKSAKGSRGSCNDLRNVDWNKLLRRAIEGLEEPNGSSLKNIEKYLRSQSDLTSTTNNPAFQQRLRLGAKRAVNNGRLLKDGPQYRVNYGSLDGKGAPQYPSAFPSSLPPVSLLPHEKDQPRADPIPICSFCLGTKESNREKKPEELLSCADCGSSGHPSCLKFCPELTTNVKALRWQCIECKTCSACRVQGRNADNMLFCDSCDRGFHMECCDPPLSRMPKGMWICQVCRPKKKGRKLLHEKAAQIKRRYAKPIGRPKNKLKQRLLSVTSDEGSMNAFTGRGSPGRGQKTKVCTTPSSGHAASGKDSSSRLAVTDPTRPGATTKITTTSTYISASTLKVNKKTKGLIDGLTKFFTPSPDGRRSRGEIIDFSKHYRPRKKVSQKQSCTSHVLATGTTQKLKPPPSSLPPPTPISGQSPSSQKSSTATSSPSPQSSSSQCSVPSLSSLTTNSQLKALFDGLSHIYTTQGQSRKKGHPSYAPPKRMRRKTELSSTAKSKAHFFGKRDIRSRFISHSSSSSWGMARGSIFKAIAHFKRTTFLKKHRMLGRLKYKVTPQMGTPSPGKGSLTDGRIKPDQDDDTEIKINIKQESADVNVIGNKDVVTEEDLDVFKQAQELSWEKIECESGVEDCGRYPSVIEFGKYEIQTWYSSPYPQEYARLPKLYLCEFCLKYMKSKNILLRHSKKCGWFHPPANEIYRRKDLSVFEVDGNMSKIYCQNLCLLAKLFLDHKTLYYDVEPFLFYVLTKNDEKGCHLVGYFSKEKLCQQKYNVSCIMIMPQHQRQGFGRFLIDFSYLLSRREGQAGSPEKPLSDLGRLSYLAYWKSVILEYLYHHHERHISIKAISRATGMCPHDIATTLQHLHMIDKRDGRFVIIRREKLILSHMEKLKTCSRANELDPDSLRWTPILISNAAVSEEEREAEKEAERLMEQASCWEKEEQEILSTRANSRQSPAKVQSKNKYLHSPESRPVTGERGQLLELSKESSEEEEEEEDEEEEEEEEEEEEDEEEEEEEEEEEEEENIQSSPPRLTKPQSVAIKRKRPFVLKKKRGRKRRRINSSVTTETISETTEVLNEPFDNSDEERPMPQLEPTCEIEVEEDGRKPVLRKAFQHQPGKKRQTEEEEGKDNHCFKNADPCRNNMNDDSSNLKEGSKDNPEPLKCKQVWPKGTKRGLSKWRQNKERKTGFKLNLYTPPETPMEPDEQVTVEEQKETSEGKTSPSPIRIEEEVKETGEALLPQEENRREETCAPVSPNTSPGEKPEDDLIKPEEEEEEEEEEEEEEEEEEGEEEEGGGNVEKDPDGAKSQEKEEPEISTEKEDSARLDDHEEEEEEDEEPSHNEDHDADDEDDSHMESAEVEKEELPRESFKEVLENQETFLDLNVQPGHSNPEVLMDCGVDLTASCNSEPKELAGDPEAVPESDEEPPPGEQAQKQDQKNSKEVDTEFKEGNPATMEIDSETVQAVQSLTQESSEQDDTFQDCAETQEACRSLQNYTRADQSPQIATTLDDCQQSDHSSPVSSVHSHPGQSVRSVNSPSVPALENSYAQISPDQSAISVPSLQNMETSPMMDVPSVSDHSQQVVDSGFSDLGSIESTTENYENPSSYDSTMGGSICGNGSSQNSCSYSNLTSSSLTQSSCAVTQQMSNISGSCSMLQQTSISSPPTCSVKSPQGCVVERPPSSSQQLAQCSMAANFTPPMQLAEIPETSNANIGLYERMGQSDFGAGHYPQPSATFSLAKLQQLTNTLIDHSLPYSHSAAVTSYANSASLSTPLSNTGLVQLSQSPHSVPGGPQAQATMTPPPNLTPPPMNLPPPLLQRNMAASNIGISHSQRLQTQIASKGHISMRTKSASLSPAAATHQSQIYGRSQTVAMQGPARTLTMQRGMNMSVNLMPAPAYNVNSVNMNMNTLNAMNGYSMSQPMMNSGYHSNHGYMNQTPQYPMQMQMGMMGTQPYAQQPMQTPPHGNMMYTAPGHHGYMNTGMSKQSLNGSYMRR

Row | Structure (SMILES) | IC50 [1] | IC50 [2] | IC50 [4] | IC50 [3]
1 | COc1ccc2c(c1S(=O)(=O)Nc1noc3cc(Cn4cccn4)cc(OC)c13)OCCOC2 [Compound 10, N-(6-((1H-Pyrazol-1-yl)methyl)-4-methoxybenzo[d]isoxazol-3-yl)-8-methoxy-2,3-dihyd ro-5H-benzo [e] [1,4] dioxepine-9-sulfonamide] | 2.2 nM | 19.9 nM | 2.3 nM | 1.4 nM
2 | COc1ccc2c(c1S(=O)(=O)Nc1noc3cc(Cn4cccn4)c(F)cc13)OCCCO2 [Compound 12, N-(6-((1H-Pyrazol-1-yl)methyl)-5-fluorobenzo[d]isoxazol-3-yl)-7-methoxy-3,4-dihydro-2H-benzo [b] [1,4] dioxepine-6-sulfonamide] | 6.5 nM | 40 nM | 4.5 nM | 1.4 nM
3 | COc1ccc2c(c1S(=O)(=O)Nc1noc3cc(Cn4cccn4)c(C4CC4)cc13)OCCCO2 [Compound 14, N-(6-((1H-Pyrazol-1-yl)methyl)-5-cyclopropylbenzo[d]isoxazol-3-yl)-7-methoxy-3,4-di hydro-2H-benzo[b][1,4]dioxepine-6-sulfonamide] | 1.4 nM | 12.7 nM | 11.5 nM | 8.6 nM
4 | COc1cc2c(NS(=O)(=O)c3c(OC)ccc4c3OCCCO4)noc2cc1Cn1cccn1 [Compound 15, N-(6-((1H-Pyrazol-1-yl)methyl)-5-methoxybenzo[d]isoxazol-3-yl)-7-methoxy-3,4-dihyd ro-2H-benzo[b][1,4] dioxepine-6-sulfonamide] | 1.7 nM | 9.3 nM | 1.1 nM | 0.6 nM
5 | CCc1c(Cn2cccn2)cc2onc(NS(=O)(=O)c3c(OC)ccc4c3OCC3CC43)c2c1OC (stereo not shown) [Compound 27, N-(6-((1H-Pyrazol-1-yl)methyl)-5-ethyl-4-methoxybenzo[d]isoxazol-3-yl)-5-methoxy-1,1a,2,7b-tetrahydrocyclopropa[c]chromene-4-sulfonamide] | 1.3 nM | 8.9 nM | 27.1 nM | 11.5 nM
6 | COc1ccc2c(c1S(=O)(=O)Nc1noc3cc(Cn4cccn4)c(F)c(OC)c13)OCC1CC21 (stereo not shown) [Compound 30, N-(6-((1H-Pyrazol-1-yl)methyl)-5-fluoro-4-methoxybenzo[d]isoxazol-3-yl)-5-methoxy-1,1a,2,7b-tetrahydrocyclopropa[c]chromene-4-sulfonamide] | 0.8 nM | 1.8 nM | 0.8 nM | 0.15 nM
7 | COc1ccc2c(c1S(=O)(=O)Nc1noc3cc(Cn4cccn4)c4c(c13)OCC4)OCCCO2 [Compound 35, N-(4-((1H-Pyrazol-1-yl)methyl)-2,3-dihydrobenzofuro[7,6-d]isoxazol-8-yl)-7-methoxy-3,4-dihydro-2H-benzo[b][1,4]dioxepine-6-sulfonamide] | 4.3 nM | 45.9 nM | 15 nM | 3.3 nM

Second part, led by results:

Row | IC50 [1] | IC50 [2] | IC50 [4] | Structure (SMILES) | IC50 [3]
8 | 2.2 nM | 12.3 nM | 37.7 nM | CCc1c(Cn2cccn2)cc2onc(NS(=O)(=O)c3c(OC)ccc4c3OCC43CC3)c2c1OC [Compound 28, N-(6-((1H-Pyrazol-1-yl)methyl)-5-ethyl-4-methoxybenzo[d]isoxazol-3-yl)-6-methoxy-2 H-spiro[benzofuran-3,1'-cyclopropane]-7-sulfonamide] | 16.6 nM
9 | 3 nM | 23.3 nM | 4.6 nM | COc1ccc2c(c1S(=O)(=O)Nc1noc3cc(Cn4cccn4)c(F)c(OC)c13)OCCCO2 [Compound 29, N-(6-((1H-Pyrazol-1-yl)methyl)-5-fluoro-4-methoxybenzo[d]isoxazol-3-yl)-7-methoxy-3,4-dihydro-2H-benzo[b][1,4]dioxepine-6-sulfonamide] | 0.6 nM
10 | 1.3 nM | 2.7 nM | 1.1 nM | COc1ccc2c(c1S(=O)(=O)Nc1noc3cc(Cn4cccn4)c(F)c(OC)c13)OCC21CC1 [Compound 31, N-(6-((1H-Pyrazol-1-yl)methyl)-5-fluoro-4-methoxybenzo[d]isoxazol-3-yl)-6-methoxy-2H-spiro[benzofuran-3,1'-cyclopropane]-7-sulfonamide] | 0.3 nM
